Among the data in ChEMBL document CHEMBL3046296, “Development of a New Herbicide, Indanofan” (J Pestic Sci, 2004) are Activity and logP values, retold here.

One data set relates to Zoysia matrella. Kind of data set: Pre-emergence herbicide activity against Zoysia matrella measured 7 days after planting. The data set is classed as functional.
Another data set relates to Poa annua. Kind of data set: Pre-emergence herbicide activity against Poa annua up to two-leaf stage. In kind it is functional.
Data set [1] concerns Echinochloa oryzicola. Kind of data set: Pre-emergence herbicide activity against Echinochloa oryzicola after 42 days. In kind it is functional.
In a further data set the test system is Echinochloa crus-galli. Kind of data set: Pre-emergence herbicide activity against Echinochloa crus-galli (barnyard grass) up to 3-leaf stage. The data set is classed as functional.
For data set [2], the system named is Echinochloa oryzicola. Kind of data set: Pre-emergence herbicide activity against Echinochloa oryzicola up to three-leaf stage. In kind it is functional.
Data set [3] in a line: Octanol-water partition co-efficient, log P of the compound in water at 25 degC. In kind it is physicochemical.

In general, logP refers to the decadic logarithm of the partition coefficient of the neutral form, usually between octanol and water. Turning to `CCC1(CC2(c3cccc(Cl)c3)CO2)C(=O)c2ccccc2C1=O` (stereo not drawn) [(RS)-INDANOFAN], the Activity in the data set on Zoysia matrella worked out at 1 KgAi/ha; with Poa annua it was 0.5 KgAi/ha; with Echinochloa oryzicola [1] it was 0.15 KgAi/ha; in the data set on Echinochloa crus-galli, 0.15 KgAi/ha; in the data set on Echinochloa oryzicola [2] it was 0.15 KgAi/ha. In addition, in data set [3], the logP was found to be 3.59.
